Source: ChEMBL document CHEMBL1130760, “Anti-malarial activities of acylated bruceolide derivatives” (Bioorg Med Chem Lett, 1998)
“And” between values parts separate entries of the source, which are not always exact repeats. Identical values can stand only once.

How the values were obtained:
FM3A [1] = experiment: Cytotoxicity against FM3A cells derived from a mammary tumor in mice was evaluated.; format: functional, cell-based; settings: Mus musculus
Plasmodium falciparum = experiment: Anti-malarial activity as growth inhibition of chloroquine-resistant Plasmodium falciparum; format: functional, organism-based
FM3A [2] = experiment: Selective toxicity against Plasmodium falciparum compared to FM3A cytotoxicity; format: functional
FM3A [3] = experiment: […] was evaluated by the percent viability of cells; format: functional, Mus musculus

Compound	EC50 (FM3A [1]) [µM]	EC50 (Plasmodium falciparum; Plasmodium falciparum) [µM]	Ratio (FM3A [2])	Viability (FM3A [3]) [%]	EC50 (Plasmodium falciparum)
COC(=O)[C@@]12OC[C@]34[C@H]([C@@H](O)[C@@H]1O)[C@@]1(C)CC(=O)C(OC(=O)c5ccccc5)=C(C)[C@@H]1C[C@H]3OC(=O)[C@H](OC(=O)c1ccccc1)[C@@H]24	0.4	> 1			
COC(=O)[C@@]12OC[C@]34[C@H]([C@@H](O)[C@@H]1O)[C@@]1(C)CC(=O)C(OC(=O)C(N)Cc5ccccc5)=C(C)[C@@H]1C[C@H]3OC(=O)[C@H](OC(=O)C(N)Cc1ccccc1)[C@@H]24 (some centres undefined)	> 15	2.8	>5.4		
CCCCCCCCCC(=O)OC1=C(C)[C@@H]2C[C@H]3OC(=O)[C@H](OC(=O)CCCCCCCCC)[C@H]4[C@]5(C(=O)OC)OC[C@]34[C@H]([C@@H](O)[C@@H]5O)[C@@]2(C)CC1=O	< 0.16	0.39			
COC(=O)[C@@]12OC[C@]34[C@H]([C@@H](O)[C@@H]1O)[C@@]1(C)CC(=O)C(OC(C)=O)=C(C)[C@@H]1C[C@H]3OC(=O)[C@H](OC(C)=O)[C@@H]24	16	0.039	410		
CCCCCC(=O)OC1=C(C)[C@@H]2C[C@H]3OC(=O)[C@H](O)[C@H]4[C@]5(C(=O)OC)OC[C@]34[C@H]([C@@H](O)[C@@H]5O)[C@@]2(C)CC1=O	1	1			
C/C=C(\C)C(=O)OC1=C(C)[C@@H]2C[C@H]3OC(=O)[C@H](OC(=O)/C(C)=C/C)[C@H]4[C@]5(C(=O)OC)OC[C@]34[C@H]([C@@H](O)[C@@H]5O)[C@@]2(C)CC1=O	> 16			100	> 1 µM and 16 µM
COC(=O)[C@@]12OC[C@]34[C@H]([C@@H](O)[C@@H]1O)[C@@]1(C)CC(=O)C(OC(=O)/C=C/c5ccccc5)=C(C)[C@@H]1C[C@H]3OC(=O)[C@H](OC(=O)/C=C/c1ccccc1)[C@@H]24	< 0.15	0.082			
C/C=C(/C)C(=O)OC1=C(C)[C@@H]2C[C@H]3OC(=O)[C@H](OC(=O)/C(C)=C\C)[C@H]4[C@]5(C(=O)OC)OC[C@]34[C@H]([C@@H](O)[C@@H]5O)[C@@]2(C)CC1=O	6	0.7	9		
CCC(=O)O[C@H]1C(=O)O[C@@H]2C[C@H]3C(C)=C(O)C(=O)C[C@]3(C)[C@H]3[C@@H](O)[C@H](O)[C@@]4(C(=O)OC)OC[C@]32[C@@H]14	7	0.029	241		
CCCCCC(=O)OC1=C(C)[C@@H]2C[C@H]3OC(=O)[C@H](OC(=O)CCCCC)[C@H]4[C@]5(C(=O)OC)OC[C@]34[C@H]([C@@H](O)[C@@H]5O)[C@@]2(C)CC1=O	< 0.17	0.098			
CCCCCCCCCCCCCCCC(=O)OC1=C(C)[C@@H]2C[C@H]3OC(=O)[C@H](OC(=O)CCCCCCCCCCCCCCC)[C@H]4[C@]5(C(=O)OC)OC[C@]34[C@H]([C@@H](O)[C@@H]5O)[C@@]2(C)CC1=O		16		89.9	
COC(=O)[C@@]12OC[C@]34[C@H]([C@@H](O)[C@@H]1O)[C@@]1(C)CC(=O)C(OC(=O)C(N)C(C)C)=C(C)[C@@H]1C[C@H]3OC(=O)[C@H](OC(=O)C(N)C(C)C)[C@@H]24 (some centres undefined)	> 15	0.57	>26		
CCCCCCCCCC(=O)OC1=C(C)[C@@H]2C[C@H]3OC(=O)[C@H](O)[C@H]4[C@]5(C(=O)OC)OC[C@]34[C@H]([C@@H](O)[C@@H]5O)[C@@]2(C)CC1=O	0.4	> 1			
COC(=O)[C@@]12OC[C@]34[C@H]([C@@H](O)[C@@H]1O)[C@@]1(C)CC(=O)C(OC(=O)C(C)N)=C(C)[C@@H]1C[C@H]3OC(=O)[C@H](OC(=O)C(C)N)[C@@H]24 (some centres undefined)	> 16	1	>16		
CCC(=O)OC1=C(C)[C@@H]2C[C@H]3OC(=O)[C@H](OC(=O)CC)[C@H]4[C@]5(C(=O)OC)OC[C@]34[C@H]([C@@H](O)[C@@H]5O)[C@@]2(C)CC1=O	6.1	0.035	174		
COC(=O)[C@@]12OC[C@]34[C@H]([C@@H](O)[C@@H]1O)[C@@]1(C)CC(=O)C(O)=C(C)[C@@H]1C[C@H]3OC(=O)[C@H](OC(C)=O)[C@@H]24 [BRUCEINE B]	8	0.024	333		
COC(=O)[C@@]12OC[C@]34[C@H]([C@@H](O)[C@@H]1O)[C@@]1(C)CC(=O)C(O)=C(C)[C@@H]1C[C@H]3OC(=O)[C@H](O)[C@@H]24 [BRUCEOLIDE]	> 21	1.7	>12.3		
